What was measured:
Assay type in all cases: in vivo
Meth-A tumor cells = test: Antitumor activity against Meth-A system; conditions: BALB/c mice; Meth-A 1.5×10^6 cells mixed with 100 μg compound in PBS, intradermal; 27th day after inoculation
Experimental: (3) Antitumor Activity Against Meth-A System
A mixture of tumor cells (Meth-A, 1.5×10^6) and 100 μg of Compound 20 of the present invention suspended in PBS was inoculated intradermally in BALB/c mice. […] The value is expressed in terms of the number of tumor-free mice/the number of mice tested.

[1] = test system: delayed-type hypersensitivity to N-acetyltyrosine-3-azobenzene-4'-arsonic acid (ABA-N-Ac-Tyr); test: Adjuvant activity: enhancement of induction of delayed-type hypersensitivity (skin reaction); conditions: guinea pig, 100 μg/animal compound with 50 μg ABA-N-Ac-Tyr in FIA into soles, 100 μg ABA-BSA intradermal two weeks later, mean ± SE; for Skin Reaction 24 Hours (diameter of erythema and induration): read 24 hours after injection; for Skin Reaction 48 Hours (diameter of erythema and induration): read 48 hours after injection
Experimental: The adjuvant activity was confirmed by the enhancing activity on the induction of delayed-type hypersensitivity to N-acetyltyrosine-3-azobenzene-4'-arsonic acid (hereinafter referred to as ABA-N-Ac-Tyr) in guinea pig.
That is, a water-in-oil emulsion prepared by mixing 50 μg/animal of ABA-N-Ac-Tyr and 100 μg/animal of each of the compounds of the present invention with Freund's incomplete adjuvant (hereinafter referred to as FIA) was administered to the soles of guinea pigs. Two weeks later, 100 μg of 3-azobenzene-4'-arsonic acid bonded to bovine serum albumin (hereinafter referred to as ABA-BSA) was intradermally injected and the diameter of skin reaction (i.e., erythema and induration) was measured 24 hours and 48 hours after the injection. The diameter of the skin reaction is considered a measure of cellular immunity.

E. coli E77156 = test: Prophylactic effect against microbial infection in mice; conditions: STD-ddy male mice, 100 μg/mouse s.c. 24 hours before s.c. challenge
Experimental: (2) Prophylactic Effect Against Microbial Infection
Animals: Groups of 20 STD-ddy male mice, 5 weeks of age, were used.
Bacteria: E. coli E77156 which has been maintained in a freezed-culture was used.
Agents: Compounds of the present invention were dissolved or suspended in Dulbecco phosphate-buffered saline (PBS: pH 7.4) at a concentration of 500 μg/ml just before use.
Treatment and Infection: The animals were treated subcutaneously with 0.2 ml of each of the above solution or suspension (equivalent to 100 μg/mouse), followed by the subcutaneous challenge with E. coli 24 hours later.
The effect was judged from the percent survival of the mice seven days after the infection.

[2] = inoculum 4.4 × 10^6 cells/mouse
[3] = inoculum 6.17 × 10^6 cells/mouse

Structure (SMILES)	Skin Reaction 24 Hours (diameter of erythema and induration) [1]	Skin Reaction 48 Hours (diameter of erythema and induration) [1]	% Survival 7 days after Infection (E. coli E77156; [3])	further results
CCCCCCCCCCCCCCCCCCCCCCCCCCCCCC(=O)S[C@@H]1O[C@H](CO)[C@@H](O)[C@H](O[C@H](C)C(=O)N[C@@H](C)C(=O)N[C@H](CCC(=O)OC)C(N)=O)[C@H]1NC(C)=O [Compound 20, 2-Acetamido-2-deoxy-1-S-triacontanoyl-3-O-(D-2-propanoyl-L-alanyl-D-isoglutaminemethyl ester)-1-thio-β-D-glucopyranose]				Suppression of Meth-A growth (number of tumor-free mice/number of mice tested) (Meth-A tumor cells): 5/9
COC(=O)CC[C@@H](NC(=O)[C@H](C)NC(=O)[C@@H](C)O[C@H]1[C@H](O)[C@@H](CO)O[C@@H](SC(C)=O)[C@@H]1NC(C)=O)C(N)=O [Compound 2, 2-Acetamido-1-S-acetyl-2-deoxy-3-O-(D-2-propanoyl-L-alanyl-D-isoglutaminemethyl ester)-1-thio-β-D-glucopyranose]	21.0 ± 1.0 mm	21.0 ± 0.7 mm		
CCCCSC1OC(CO)C(O)C(OC(C)C(=O)NC(C)C(=O)NC(CCC(=O)O)C(N)=O)C1NC(C)=O [Compound 10, 1-S-n-Butyl 2-acetamido-2-deoxy-3-O-(D-2-propanoyl-L-alanyl-D-isoglutamine)-1-thio-β-D-glucopyranoside]	17.4 ± 1.7 mm	13.6 ± 1.8 mm		
CCCCCCCCCCCCCCCC(=O)S[C@@H]1O[C@H](CO)[C@@H](O)[C@H](O[C@H](C)C(=O)N[C@@H](C)C(=O)N[C@H](CCC(=O)OC)C(N)=O)[C@H]1NC(C)=O [Compound 14, 2-Acetamido-2-deoxy-1-S-hexadecanoyl-3-O-(D-2-propanoyl-L-alanyl-D-isoglutaminemethyl ester)-1-thio-β-D-glucopyranose]	20.4 ± 0.7 mm	21.0 ± 1.4 mm		% Survival 7 days after Infection (E. coli E77156; [2]): 80%
CC(=O)NC1C(S)OC2COC(C)(C)OC2C1OC(C)C(=O)NC(C)C(=O)NC(CCC(=O)O)C(N)=O [Compound 15, 2-Acetamido-2-deoxy-4,6-O-isopropylidene-3-O-(D-2-propanoyl-L-alanyl-D-isoglutamine)-1-thio-β-D-glucopyranose]	16.9 ± 0.8 mm	14.0 ± 1.0 mm		
CCCCCCCCCCCC(=O)S[C@@H]1O[C@H](CO)[C@@H](O)[C@H](O[C@H](C)C(=O)N[C@@H](C)C(=O)N[C@H](CCC(=O)O)C(N)=O)[C@H]1NC(C)=O [Compound 22, 2-Acetamido-2-deoxy-1-S-dodecanoyl-3-O-(D-2-propanoyl-L-alanyl-D-isoglutamine)-1-thio-β-D-glucopyranose]			55%	
CCCCCCCCCCCCCCCCCC(=O)S[C@@H]1O[C@H](CO)[C@@H](O)[C@H](O[C@H](C)C(=O)N[C@@H](C)C(=O)N[C@H](CCC(=O)OC)C(N)=O)[C@H]1NC(C)=O [Compound 19, 2-Acetamido-2-deoxy-1-S-octadecanoyl-3-O-(D-2-propanoyl-L-alanyl-D-isoglutaminemethyl ester)-1-thio-β-D-glucopyranose]			70%	
CCCCCCCCCCCCCC(=O)SC1OC(CO)C(O)C(OC(C)C(=O)NC(C)C(=O)NC(CCC(=O)O)C(N)=O)C1NC(C)=O [Compound 23, 2-Acetamido-2-deoxy-1-S-tetradecanoyl-3-O-(D-2-propanoyl-L-alanyl-D-isoglutamine)-1-thio-β-D-glucopyranose]			60%	
CCCCCCCCCCCCCCCCSC1OC(CO)C(O)C(OC(C)C(=O)NC(C)C(=O)NC(CCC(=O)O)C(N)=O)C1NC(C)=O [Compound 11, 1-S-Hexadecanyl 2-acetamido-2-deoxy-3-O-(D-2-propanoyl-L-alanyl-D-isoglutamine)-1-thio-β-D-glucopyranoside]	15.6 ± 1.9 mm	11.6 ± 1.4 mm		
CC(=O)NC1C(S)OC(CO)C(O)C1OC(C)C(=O)NC(C)C(=O)NC(CCC(=O)O)C(N)=O [Compound 4, 2-acetamido-2-deoxy-3-O-(D-2-propanoyl-L-alanyl-D-isoglutamine)-1-thio-β-D-glucopyranose]	23.1 ± 1.2 mm	21.0 ± 1.3 mm		% Survival 7 days after Infection (E. coli E77156; [2]): 55%
CCCCCCCCCCCCCCCCCCCC(=O)S[C@@H]1O[C@H](CO)[C@@H](O)[C@H](O[C@H](C)C(=O)N[C@@H](C)C(=O)N[C@H](CCC(=O)O)C(N)=O)[C@H]1NC(C)=O [Compound 25, 2-Acetamido-2-deoxy-1-S-eicosanoyl-3-O-(D-2-propanoyl-L-alanyl-D-isoglutamine)-1-thio-β-D-glucopyranose]				% Survival 7 days after Infection (E. coli E77156; inoculum 6.88 × 10^6 cells/mouse): 55%
CCCC(=O)S[C@@H]1O[C@H](CO)[C@@H](O)[C@H](O[C@H](C)C(=O)N[C@@H](C)C(=O)N[C@H](CCC(=O)OC)C(N)=O)[C@H]1NC(C)=O [Compound 21, 2-Acetamido-2-deoxy-1-S-n-butanoyl-3-O-(D-2-propanoyl-L-alanyl-D-isoglutaminemethyl ester)-1-thio-β-D-glucopyranose]			50%	
CCCCCCCCCCCCCCCC(=O)S[C@@H]1O[C@H](CO)[C@@H](O)[C@H](O[C@H](C)C(=O)N[C@@H](C)C(=O)N[C@H](CCC(=O)O)C(N)=O)[C@H]1NC(C)=O [Compound 17, 2-Acetamido-2-deoxy-1-S-hexadecanoyl-3-O-(D-2-propanoyl-L-alanyl-D-isoglutamine)-1-thio-β-D-glucopyranose]	21.8 ± 0.8 mm	23.1 ± 1.1 mm		% Survival 7 days after Infection (E. coli E77156; [2]): 60%
CCCCCCCCCCCCCCCC(=O)SC1OC2COC(C)(C)OC2C(OC(C)C(=O)NC(C)C(=O)NC(CCC(=O)O)C(N)=O)C1NC(C)=O [Compound 16, 2-Acetamido-2-deoxy-1-S-hexadecanoyl-4,6-O-isopropylidene-3-O-(D-2-propanoyl-L-alanyl-D-isoglutamine)-1-thio-β-D-glucopyranose]	11.3 ± 0.8 mm	5.6 ± 1.4 mm		
CCCCCCCCCCCCCCCCSC1OC(CO)C(O)C(OC(C)C(=O)NC(C)C(=O)NC(CCC(=O)OC)C(N)=O)C1NC(C)=O [Compound 9, 1-S-Hexadecanyl 2-acetamido-2-deoxy-3-O-(D-2-propanoyl-L-alanyl-D-isoglutaminemethyl ester)-1-thio-β-D-glucopyranoside]	13.5 ± 0.8 mm	12.4 ± 0.7 mm		
CCCCCCCCCCCCCC(=O)S[C@@H]1O[C@H](CO)[C@@H](O)[C@H](O[C@H](C)C(=O)N[C@@H](C)C(=O)N[C@H](CCC(=O)OC)C(N)=O)[C@H]1NC(C)=O [Compound 24, 2-Acetamido-2-deoxy-1-S-tetradecanoyl-3-O-(D-2-propanoyl-L-alanyl-D-isoglutaminemethyl ester)-1-thio-β-D-glucopyranose]			65%	
CCCCCCCCCC(=O)S[C@@H]1O[C@H](CO)[C@@H](O)[C@H](O[C@H](C)C(=O)N[C@@H](C)C(=O)N[C@H](CCC(=O)OC)C(N)=O)[C@H]1NC(C)=O [Compound 18, 2-Acetamido-2-deoxy-1-S-decanoyl-3-O-(D-2-propanoyl-L-alanyl-D-isoglutaminemethyl ester)-1-thio-β-D-glucopyranose]			90%	
CCCCS[C@@H]1O[C@H](CO)[C@@H](O)[C@H](O[C@H](C)C(=O)N[C@@H](C)C(=O)N[C@H](CCC(=O)OC)C(N)=O)[C@H]1NC(C)=O [Compound 8, 1-S-n-Butyl 2-acetamido-2-deoxy-3-O-(D-2-propanoyl-L-alanyl-D-isoglutaminemethyl ester)-1-thio-β-D-glucopyranoside]	14.5 ± 0.7 mm	10.3 ± 1.0 mm		
COC(=O)CC[C@@H](NC(=O)[C@H](C)NC(=O)[C@@H](C)O[C@H]1[C@H](O)[C@@H](CO)O[C@@H](S)[C@@H]1NC(C)=O)C(N)=O [Compound 3, 2-Acetamido-2-deoxy-3-O-(D-2-propanoyl-L-alanyl-D-isoglutaminemethyl ester)-1-thio-β-D-glucopyranose]	22.1 ± 0.9 mm	20.9 ± 0.7 mm		
